In PubChem BioAssay AID1159562 (GlaxoSmithKline (GSK), 2015):
Calls of active or inactive are those of the source. How the calls were made is not given here.

What follows are molecules tested on Trypanosoma brucei growth inhibition, luminescence (assay: Trypanosoma brucei growth inhibition, luminescence (AID 1159562);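 further: parasites grew with compound for 24 h before the luminescence read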).

| SMILES | IC50 |
| --- | --- |
| O=c1[nH]ccc2ccc(-c3ccncc3)cc12 | > 40000 nM (inactive) |
| O=[N+]([O-])c1cccc(Nc2cncc(-c3ccccc3CO)c2)c1 | > 40000 nM (inactive) |
| CC(c1cc(Cl)cc(Cl)c1)N(C)c1ncc2c(N)nc(N)nc2n1 (stereo unspecified) | 32000 nM |
| CC(Cn1ccnc1)NC(=O)C1CC1c1cccc(Cl)c1Cl (stereo unspecified) | > 40000 nM (inactive) |
| COc1ccc(C(=O)N2CCC(Nc3cccnc3)C2)c(OC)n1 (stereo unspecified) | > 40000 nM (inactive) |
| CCCN(Cc1ccc(OC)c(OC)c1)Cc1cc(=O)c2c(C)cc(C)cc2[nH]1 | > 40000 nM (inactive) |
| Cc1cc(C)nc(N2CCC(N(Cc3cccnc3)C(=O)c3cccc(C#N)c3)CC2)n1 | > 40000 nM (inactive) |
| Cc1cc2cc(CNc3ccc4c(c3)OCO4)c(=O)n(CCO)c2cc1C | > 40000 nM (inactive) |
| O=C(c1cccc(Cl)c1Cl)N1CCn2c1nc(-c1ccncc1)cc2=O | 32000 nM |
| O=C(CN(Cc1ccccn1)Cc1ccccn1)NCc1ccc2c(c1)OCO2 | 20000 nM |
| O=c1ccn(-c2ccc([N+](=O)[O-])cc2Cl)c2ccc(F)cc12 | > 40000 nM (inactive) |
| N#Cc1cccc(CN2CCC(N(Cc3cccnc3)C(=O)c3cc(F)c(F)cc3F)CC2)c1 | > 40000 nM (inactive) |
| CN(Cc1ccc(C(N)=O)cc1)C(c1ccc(F)cc1)c1cccnc1 (stereo unspecified) | > 40000 nM (inactive) |
| CC(Cn1ccnc1)NC(=O)COc1ccc(Cl)c(Cl)c1 (stereo unspecified) | > 40000 nM (inactive) |
| FC(F)(F)c1cc(C2CCCN(Cc3c[nH]c4ccccc34)C2)nc2ncnn12 (stereo unspecified) | > 40000 nM (inactive) |
| CC(C)Nc1nc(Cl)nc2ccccc12 | 13000 nM |
| O=C(Nc1nc(-c2ccc(S(=O)(=O)N3CCOCC3)cc2)cs1)c1ccc([N+](=O)[O-])cc1 | 10000 nM |
| Cc1c(CNC(=O)c2ccc(Cn3cc(Cl)c([N+](=O)[O-])n3)cc2)cnn1C | 10000 nM |
| O=C(c1ccc(O)c(Cl)c1)N1CCN(c2cnccn2)CC1 | > 40000 nM (inactive) |
| Cc1ccc(NC(C)C(=O)Nc2ccc(C#N)cc2)cc1S(=O)(=O)N1CCCCC1 (stereo unspecified) | 10000 nM |
| COc1ccc(-c2cc(C)no2)cc1S(=O)(=O)Nc1ccc(F)c(Cl)c1 | 25000 nM |
| O=C(N1CCc2ccccc2CC1)C1(C(=O)N2CCC(n3c(=O)[nH]c4ncccc43)CC2)CC1 | > 40000 nM (inactive) |
| O=C(NCCNc1noc(-c2ccc([N+](=O)[O-])cc2)n1)c1ccc(Cl)cc1 | > 40000 nM (inactive) |
| CC(=O)Nc1nc(-c2cc(C)ccc2C)c(C)s1 | > 40000 nM (inactive) |
| CN(Cc1cc2ccccc2s1)c1ncc2c(N)nc(N)nc2n1 | 25000 nM |
| CC1(C)CCC(=Cc2ccc(Cl)cc2)CC1(O)Cn1ccnc1 (stereo unspecified) | 25000 nM |
| CCS(=O)(=O)Nc1ccc(C2=NN(C(=O)c3cccs3)C(c3ccccc3OC)C2)cc1 (stereo unspecified) | 16000 nM |

| SMILES | IC50 |
| --- | --- |
| Cn1nc([N+](=O)[O-])nc1Oc1ccc(C(=O)c2ccccc2)cc1 | > 40000 nM (inactive) |
| C=CCOCC1Cn2nc([N+](=O)[O-])nc2O1 (stereo unspecified) | > 40000 nM (inactive) |
| O=C(Nc1cccc(F)c1)N1CCC(Oc2cccc(-c3cccnc3)c2)CC1 | > 40000 nM (inactive) |
| O=C(CN(Cc1ccccn1)Cc1ccccn1)NC1Cc2ccccc2C1 | 13000 nM |
| Cc1nnnn1-c1cccc(C(=O)N2CCC[C@@]3(C)c4ncncc4CCC23)c1 (stereo partly specified) | > 40000 nM (inactive) |
| Cc1nn(-c2nc(N)nc(-c3ccccn3)n2)c(N)c1-c1ccccc1 | 6300 nM |
| CCCc1nc2nc(N)nc(N)c2cc1CC | 25000 nM |
| Cc1ccc(NC(=O)c2ccc(Cl)c(NC(=O)c3ccc([N+](=O)[O-])cc3)c2)cc1 | 16000 nM |
| Cc1ccc2onc(Nc3ccnc(Nc4cccc(S(C)(=O)=O)c4)n3)c2c1 | 7900 nM |
| c1ccc(-c2nc(NCc3ccco3)c3ccccc3n2)nc1 | 6300 nM |
| CCNc1cc(-c2ccccn2)nc(Nc2ccc(OC)cc2)n1 | 10000 nM |
| Cc1cn[nH]c1C1CCCN(Cc2nc3ccccc3n2C)C1 (stereo unspecified) | 7900 nM |
| N#Cc1cccc(Nc2nccc(N3CCC(NS(=O)(=O)c4cccc(C#N)c4)CC3)n2)c1 | 6300 nM |
| Cc1ccccc1OCC(=O)N1CCCN(c2cccnn2)CC1 | > 40000 nM (inactive) |
| Cc1cccnc1CN1CCN(CCCOc2ccc(-c3ccc(C(N)=O)cc3)cc2)CC1 | > 40000 nM (inactive) |
| COc1cc(OC)cc(C(NS(=O)(=O)c2ccc(Cl)c(C(F)(F)F)c2)c2nccn2C)c1 (stereo unspecified) | 7900 nM |
| Cc1ccc(C)c(-n2nnnc2Sc2nc([N+](=O)[O-])nn2C)c1 | 16000 nM |
| O=C(c1cccc(Nc2ncc(-c3ccc4c(c3)OCO4)cn2)c1)N1CCSC1 | > 40000 nM (inactive) |
| O=C(CCCNC(=O)c1ccc(Cl)cc1)Nc1nc(-c2ccccn2)cs1 | 13000 nM |
| COc1ccccc1-n1c(SCC(=O)Nc2ccc3c(c2)OCO3)nc2c(c1=O)SCC2 | > 40000 nM (inactive) |
| COc1ccc(C2CC(c3ccc(NS(C)(=O)=O)cc3)=NN2C(=O)c2cccs2)cc1OC (stereo unspecified) | 25000 nM |
| CC(=O)Nc1ccc(-c2noc(CC3CCCN(Cc4cccc(F)c4C)C3)n2)cc1 (stereo unspecified) | 25000 nM |
| O=C(c1cnn(-c2ccccc2)n1)N1CCCC(n2ccnc2)C1 (stereo unspecified) | 32000 nM |
| Cc1nc2c(-c3nc(-c4ccc(N)cc4)n[nH]3)cccn2c1C | 25000 nM |
| COc1ccccc1C1CC(c2ccc(NS(C)(=O)=O)cc2)=NN1C(=O)c1cccs1 (stereo unspecified) | 20000 nM |
| O=C(NCc1ccc(-n2cccc2)cc1)c1nc(Cn2ccc([N+](=O)[O-])n2)no1 | > 40000 nM (inactive) |

Continued by falling IC50, values first:

| IC50 | SMILES |
| --- | --- |
| 5000 nM | CCN(CC)c1nc(Nc2ccncc2)nc2ccccc12 |
| 5000 nM | Cc1ccc(Nc2nc(N)nc(CNC(c3nc4ccccc4[nH]3)C(C)C)n2)cc1 (stereo unspecified) |
| 3200 nM | COc1ccc(S(=O)(=O)NCc2ccc(-c3ccc(CN(C)CCO)cc3)cc2)cc1 |
| 2500 nM | CCOc1ccc2nc(NC(=O)c3ccc([N+](=O)[O-])s3)sc2c1 |
| 2000 nM | Cc1cc(C)cc(NS(=O)(=O)c2cc(-c3cc(C)[nH]n3)ccc2C)c1 |
| 1300 nM | O=C(NCC1CCCCC1)c1cnns1 |
| 1000 nM | COCCn1cnc2cc(NC(=O)C3CCCCC3)cc(C(=O)N3CCc4sccc4C3)c21 |
| 1000 nM | Cc1nc(-c2ccncc2)ncc1C(C)NC(=O)c1ccc(Cl)s1 (stereo unspecified) |
| 1000 nM | COC(=O)c1ccc(-c2cnc3ccc(NCc4ccccn4)nn23)cc1 |
| 1000 nM | CNC(=O)C1Cc2ccccc2N1C(=O)COc1cccc(OC)c1 (stereo unspecified) |
| 790 nM | CCOc1ccc(OCC(=O)N2c3ccccc3CC2C(=O)NC)cc1 (stereo unspecified) |
| 790 nM | CC(C)n1c(-c2nonc2N)nc2cccc(OCCN3CCCC3)c21 |
| 790 nM | O=C(O)[C@H]1C[C@@H]1c1ccc(-c2ccc(CN(CCc3ccccn3)C(=O)C3CCC3)cc2)cc1 |
| 790 nM | O=C(CC1(O)C(=O)N(Cc2ccccc2)c2ccc(Br)cc21)c1cccnc1 (stereo unspecified) |
| 790 nM | Cc1cccnc1NC(=O)c1cccc(OCc2c(C)noc2C)c1 |
| 790 nM | O=C(NC1CCN(C2Cc3ccc(NS(=O)(=O)c4cc(F)cc(F)c4)cc3C2)CC1)C1CC1 (stereo unspecified) |
| 790 nM | Cc1[nH]n2c(=O)c3c(nc2c1-c1ccc(Br)cc1)CCCC3 |
| 790 nM | COc1ccc(C2CC(c3ccccc3Cl)=NN2C(=O)CNC(=O)C2CCCC2)cc1 (stereo unspecified) |
| 630 nM | NC(=O)c1cc(F)ccc1Nc1nc(NC2CCC(O)CC2)ncc1Cl (stereo unspecified) |
| 630 nM | O=C(COc1ccccc1)Nc1ccccc1C(=O)Nc1nccs1 |
| 630 nM | O=C(Nc1nc(-c2ccccn2)cs1)c1ccc(S(=O)(=O)N2CCCCC2)cc1 |
| 630 nM | O=C(Nc1nc(-c2ccccn2)cs1)c1ccccc1-n1cnnn1 |
| 630 nM | COc1ccc(CN2C(=O)C(O)(CC(=O)c3ccncc3)c3cc(Br)ccc32)cc1OC (stereo unspecified) |
| 630 nM | Cc1ccccc1NS(=O)(=O)c1ccc2[nH]cc(C(=O)NC3CCCC(C)C3C)c(=O)c2c1 (stereo unspecified) |
| 500 nM | Cc1occc1C(=O)Nc1ccccc1C(=O)Nc1nccs1 |
| 500 nM | COc1ncc(-c2ccc3ncnc(N4CCOCC4)c3c2)cc1NS(C)(=O)=O |
| 500 nM | O=C(Nc1ccccc1C(=O)Nc1ccccn1)c1ccco1 |

| IC50 | SMILES |
| --- | --- |
| 500 nM | COc1ccc(C2CC(c3ccccc3Cl)=NN2C(=O)CNC(=O)C2CCC2)cc1 (stereo unspecified) |
| 500 nM | Cn1ccnc1CN1CCc2[nH]cnc2C1c1ccccc1OCc1ccccc1 (stereo unspecified) |
| 500 nM | COc1cc(Nc2nccc(Nc3onc(C)c3C)n2)cc(S(=O)(=O)C2CCOCC2)c1 |
| 500 nM | CCC(CC)C(=O)Nc1ccc(-c2nnc(-c3ccc(OC)cc3)o2)cc1 |
| 500 nM | CNC(=O)C1Cc2ccccc2N1C(=O)Cc1ccc(OC)cc1 (stereo unspecified) |
| 400 nM | Cc1nn2c(NCCCO)c3c(nc2c1-c1cccs1)CCC3 |
| 400 nM | O=C(Nc1cccc(S(=O)(=O)Nc2ccc(Br)cc2)c1)c1ccc([N+](=O)[O-])s1 |
| 400 nM | O=C(N[C@H](CO)c1ccccc1)c1ccc(-c2c[nH]c3nccc(C(F)(F)F)c23)s1 |
| 320 nM | NC(=O)c1cc(F)ccc1Nc1nc(NC2CCC(O)CC2)ncc1Br (stereo unspecified) |
| 320 nM | COc1ccc2ncc(F)c(CCN3CC[C@@H](NC(=O)c4cc5c(s4)CCC5)[C@@H](O)C3)c2n1 |
| 250 nM | CNC(=O)C1Cc2ccccc2N1C(=O)Cc1ccc(F)cc1 (stereo unspecified) |
| 250 nM | O=C(Cc1ccccc1)Nc1ccccc1C(=O)Nc1nccs1 |
| 250 nM | O=C(NCCCn1cnc2ccccc21)c1ccc(NC(=O)c2ccco2)cc1 |
| 250 nM | COc1ccc(C(=O)NC2CCN(CCn3c(=O)ccc4ncc(F)cc43)CC2)cc1Cl |
| 250 nM | O=C1CN(Cc2ccco2)C2CS(=O)(=O)CC2N1c1ccc(Cl)cc1 (stereo unspecified) |
| 250 nM | Cc1[nH]nc(Nc2ccnc3[nH]ccc23)c1C |
| 200 nM | CC(C)(C)C(=O)Nc1cc(C2CC2)nn1-c1nc2c(c(=O)[nH]1)CCCC2 |
| 200 nM | NC(=O)c1ncc(N[C@@H]2CCCNC2)nc1Nc1cccc(Cl)c1 |
| 200 nM | Cc1nc2c(-c3cccs3)c(C)nn2c(NCCO)c1C |
| 160 nM | Cc1cc(NC(=O)CC2CCCCC2)n(-c2nc3c(c(=O)[nH]2)CCC3)n1 |
| 100 nM | CNS(=O)(=O)c1ccccc1Nc1nc(Nc2cc(C)nn2C)ncc1Cl |
| 63 nM | COc1ccc(OC)c(NC(=O)c2ccc([N+](=O)[O-])o2)c1 |
| 13 nM | COc1ccnc2[nH]cc(-c3cc(C(=O)N[C@H](CO)c4ccccc4)co3)c12 |
| 10 nM | Nc1ncnc2c1ncn2[C@@H]1O[C@H](CO)C[C@H]1O |
| 5 nM | O=c1[nH]cnc2c([C@@H]3O[C@H](CO)[C@@H](O)[C@H]3O)[nH]nc12 |
| 5 nM | N#Cc1c(Oc2cccc(Cl)c2)cccc1[N+](=O)[O-] |
